The values below come from patent US20090082203A1, “INSECTICIDAL BIS(SUBSTITUTED PHENYL)-1-{[4-(SATURATED HETEROCYCLYL-SUBSTITUTED)PHENYLMETHYL]- (4-PIPERIDYL)}METHANE DERIVATIVES” (priority 2004, published 2009).

In this series the test system is tobacco budworm (Heliothis virescens [Fabricius]). Kind of series: surface-treated diet test against tobacco budworm. The settings on record: 0.25 millimolar on the surface of the diet, second instar larvae, five-day exposure; for Percent Mortality: compared to the total number of insects infested; for Percent Growth Inhibition: inhibition of insect weight relative to untreated controls. It counts as in vivo.

Turning to `COCC1COC(COc2ccc(CN3CCC(C(O)(c4ccc(OC(F)(F)F)cc4)c4ccc(OC(F)(F)F)cc4)CC3)cc2)O1` (stereo not shown) [Compound 195], the “Percent Mortality” value was 100% and the “Percent Growth Inhibition” value turned out to be 100%.

`CCC1COC(COc2ccc(CN3CCC(C(O)(c4ccc(OC(F)(F)F)cc4)c4ccc(OC(F)(F)F)cc4)CC3)cc2)O1` (stereo not shown) [Compound 196]: the “Percent Mortality” value worked out at 100% and the “Percent Growth Inhibition” value was 100%.

Take `COCC1COC(COc2ccc(C[N+]3([O-])CCC(C(O)(c4ccc(OC(F)(F)F)cc4)c4ccc(OC(F)(F)F)cc4)CC3)cc2)O1` (stereo not shown) [Compound 197]: the “Percent Mortality” value is listed as 100% and the “Percent Growth Inhibition” value came to 100%.

Regarding `OC(c1ccc(OC(F)(F)F)cc1)(c1ccc(OC(F)(F)F)cc1)C1CCN(Cc2ccc(OCC3OCCCO3)cc2)CC1` [Compound 199, bis[4-(trifluoromethoxy)-phenyl](1-{[4-(1,3-dioxan-2-ylmethoxy)phenyl]methyl}(4-piperidyl))methan-1-ol], the “Percent Mortality” value was determined as 100% and the “Percent Growth Inhibition” value amounted to 100%.

As to “bis(4-trifluoromethoxyphenyl])(1-{[4-(1,3-dioxan-2-ylmethoxy)phenyl]methyl}(4-piperidyl))methan-1-ol, N-oxide [Compound 200]”, the “Percent Mortality” value is recorded as 100% and the “Percent Growth Inhibition” value worked out at 100%.
